Reference: patent publication US20090143279A1 (priority 2007, published 2009)
Read-outs that look alike come from different tables or passages of the source.

Key:
[1] = test system: mitochondrial membrane potential; format: cell-based, mouse; details: for ΔΨm (composite Z-score): normalized score vs mock-treated (DMSO) wells
reactive oxygen species = format: cell-based, mouse; details: for ROS (composite Z-score): normalized score vs mock-treated (DMSO) wells
OXPHOS gene expression = format: cell-based, mouse; details: for GE-HTS (composite Z-score): normalized score vs mock-treated (DMSO) wells
nuOXPHOS transcripts = format: cell-based, mouse; details: for nucOX (composite Z-score): normalized score vs mock-treated (DMSO) wells
mtOXPHOS transcripts = format: cell-based, mouse; details: for mitoOX (composite Z-score): normalized score vs mock-treated (DMSO) wells
cytochrome c = format: cell-based, mouse; details: for cyt c (composite Z-score): normalized score vs mock-treated (DMSO) wells
C2C12 myotubes = details: for Viability (composite Z-score): normalized score vs mock-treated (DMSO) wells
[2] = test system: cellular dehydrogenase activity; details: for MTT (composite Z-score): normalized score vs mock-treated (DMSO) wells
[3] = composite Z-score vs mock-treated (DMSO) wells, Conc 20 μM
[4] = normalized composite Z-score vs mock-treated (DMSO) wells, Conc 20 μM
[5] = composite Z-score vs DMSO, Conc 20 μM
[6] = 8.76 μM, composite Z-score vs DMSO
[7] = 20 μM, composite Z-score vs DMSO

| Compound | ΔΨm [1, 3] | ROS (reactive oxygen species; [3]) | GE-HTS (OXPHOS gene expression; [3]) | nucOX (nuOXPHOS transcripts; [3]) | mitoOX (mtOXPHOS transcripts; [3]) | cyt c (cytochrome c; [3]) | Viability (C2C12 myotubes; [3]) | MTT [2, 3] | ΔΨm [1, 5] | ROS (reactive oxygen species; [5]) | GE-HTS (OXPHOS gene expression; [5]) | nucOX (nuOXPHOS transcripts; [5]) | mitoOX (mtOXPHOS transcripts; [5]) | cyt c (cytochrome c; [5]) | Viability (C2C12 myotubes; [5]) | MTT [2, 5] | also measured |
| --- | --- | --- | --- | --- | --- | --- | --- | --- | --- | --- | --- | --- | --- | --- | --- | --- | --- |
| CC1(C)C(=O)C=C[C@]2(C)[C@H]3CC[C@@]4(C)[C@H](c5ccoc5)OC(=O)[C@H]5O[C@]54[C@]3(C)[C@H](O)C[C@@H]12 [deacetylgedunin] | 0.349 | −0.966 | −0.322 | −0.244 | −0.484 | −0.489 | −0.032 | −0.958 |  |  |  |  |  |  |  |  |  |
| CC(C)c1ccc2c(c1)CC[C@H]1[C@](C)(C(N)=O)CCC[C@]21C [dehydroabietamide] |  |  |  |  |  |  |  |  |  |  |  |  |  |  |  |  | ΔΨm [1, 4]: 1.642; ROS (reactive oxygen species; [4]): −0.130; GE-HTS (OXPHOS gene expression; [4]): −0.843; nucOX (nuOXPHOS transcripts; [4]): −0.731; mitoOX (mtOXPHOS transcripts; [4]): −0.877; cyt c (cytochrome c; [4]): 0.030; Viability (C2C12 myotubes; [4]): 0.807; MTT [2, 4]: −0.187 |
| COc1cc2c(cc1OC)-c1c(oc3c4c(ccc3c1=O)OC(C(C)C)C4)CO2 (centres unmarked) [dehydrodihydrorotenone, reference compound] | 0.125 | 0.051 | −0.001 | −0.290 | 0.535 | −0.211 | −0.172 | −3.034 |  |  |  |  |  |  |  |  |  |
| COc1ccc2c(c1)OCc1c-2oc2cc(OC)ccc12 [dehydrovariabilin] |  |  |  |  |  |  |  |  | 0.951 | 0.167 | 0.367 | 0.277 | 0.416 | 0.043 | 0.309 | −1.225 |  |
| CCN1C[C@]2(C)CC[C@H](OC)[C@@]34C1[C@]1(OCO[C@@]15C[C@H](OC)[C@H]1C[C@]3(O)[C@@H]5[C@H]1OC)[C@@H](OC(C)=O)[C@H]24 [deltaline] |  |  |  |  |  |  |  |  |  |  |  |  |  |  |  |  | ΔΨm (composite Z-score) ([1]; Conc 20 μM): −0.496; ROS (composite Z-score) (reactive oxygen species; Conc 20 μM): 1.654; GE-HTS (composite Z-score) (OXPHOS gene expression; Conc 20 μM): −0.220; nucOX (composite Z-score) (nuOXPHOS transcripts; Conc 20 μM): −0.062; mitoOX (composite Z-score) (mtOXPHOS transcripts; Conc 20 μM): −0.422; cyt c (composite Z-score) (cytochrome c; Conc 20 μM): 0.271; Viability (composite Z-score) (C2C12 myotubes; Conc 20 μM): −0.735; MTT (composite Z-score) ([2]; Conc 20 μM): −1.231 |
| CC(=O)O[C@@H]1CC2C(C)(C)CCC[C@]2(C)C2CC[C@]3(C)C(=CC(=O)O[C@H]3c3ccoc3)[C@@]21C (some centres unmarked) [deoxodeoxydihydrogedunin] | 0.941 | 0.995 | −1.452 | −1.370 | −1.397 | 0.837 | 0.876 | −0.551 |  |  |  |  |  |  |  |  |  |
| CC1(C)C2CC(=O)O[C@@]3(C)C4=CC(=O)O[C@@H](c5ccoc5)[C@]4(C)CCC3[C@@]2(C)C=C[C@H]1O (some centres unmarked) [deoxyandirobin lactone] | −0.395 | 0.837 | −1.510 | −1.558 | −1.179 | 0.893 | 0.281 | −1.509 |  |  |  |  |  |  |  |  |  |
| C=C1C2=CC(=O)O[C@@H](c3ccoc3)[C@]2(C)CC[C@@H]1[C@@]1(C)C=CC(=O)C(C)(C)[C@@H]1CC(=O)OC [deoxyandirobin] | 0.381 | −1.077 | 1.352 | 1.240 | 1.246 | 1.196 | 0.894 | 0.232 |  |  |  |  |  |  |  |  |  |
| CC(=O)O[C@@H]1C[C@H]2C(C)(C)C(=O)C=C[C@]2(C)[C@H]2CC[C@]3(C)C(=CC(=O)O[C@H]3c3ccoc3)[C@@]21C [deoxygedunin] |  |  |  |  |  |  |  |  | 1.327 | −0.640 | −1.229 | −1.298 | −0.808 | 1.083 | −0.326 | −0.532 |  |
| CC(=O)O[C@@H]1C=C[C@]2(C)C(C[C@@H](OC(C)=O)[C@]3(C)C4=CC(=O)O[C@H](c5ccoc5)[C@@]4(C)CCC23)C1(C)C (some centres unmarked) [deoxygedunol acetate] | 0.137 | 1.251 | −0.815 | −0.850 | −0.639 | 0.095 | −0.767 | −1.930 |  |  |  |  |  |  |  |  |  |
| Nc1nc2c(ncn2[C@H]2C[C@H](O)[C@@H](CO)O2)c(=O)[nH]1 [deoxyguanosine] |  |  |  |  |  |  |  |  | −0.268 | −0.110 | −0.001 | −0.090 | 0.245 | 0.695 | −0.819 | −0.703 |  |
| CC(=O)O[C@H]1C[C@@H](OC(C)=O)C(C)(C)[C@@H]2C[C@@H](OC(C)=O)[C@@]3(C)C4=CC(=O)O[C@@H](c5ccoc5)[C@]4(C)CC[C@@H]3[C@@]12C [deoxykhivorin] |  |  |  |  |  |  |  |  |  |  |  |  |  |  |  |  | ΔΨm (composite Z-score) ([1]; Conc 20 μM): 0.449; ROS (composite Z-score) (reactive oxygen species; Conc 20 μM): −0.038; GE-HTS (composite Z-score) (OXPHOS gene expression; Conc 20 μM): −1.026; nucOX (composite Z-score) (nuOXPHOS transcripts; Conc 20 μM): −0.917; mitoOX (composite Z-score) (mtOXPHOS transcripts; Conc 20 μM): −1.101; cyt c (composite Z-score) (cytochrome c; Conc 20 μM): 0.073; Viability (composite Z-score) (C2C12 myotubes; Conc 20 μM): 0.803; MTT (composite Z-score) ([2]; Conc 20 μM): −0.494 |
| COc1ccc2c(c1)OCC(Cc1ccc(OC)c(OC)c1)C2=O (centres unmarked) [deoxysappanone B trimethyl ether] |  |  |  |  |  |  |  |  |  |  |  |  |  |  |  |  | ΔΨm (composite Z-score) ([1]; Conc 20 μM): −0.194; ROS (composite Z-score) (reactive oxygen species; Conc 20 μM): 1.064; GE-HTS (composite Z-score) (OXPHOS gene expression; Conc 20 μM): 0.993; nucOX (composite Z-score) (nuOXPHOS transcripts; Conc 20 μM): 1.050; mitoOX (composite Z-score) (mtOXPHOS transcripts; Conc 20 μM): 0.613; cyt c (composite Z-score) (cytochrome c; Conc 20 μM): 0.336; Viability (composite Z-score) (C2C12 myotubes; Conc 20 μM): −0.068; MTT (composite Z-score) ([2]; Conc 20 μM): −1.507 |
| Cc1cc(N)c2ccccc2[n+]1CCCCCCCCCC[n+]1c(C)cc(N)c2ccccc21 [dequalinium] |  |  |  |  |  |  |  |  |  |  |  |  |  |  |  |  | ΔΨm [1, 6]: −3.242; ΔΨm [1, 7]: −2.506; ROS (reactive oxygen species; [6]): −3.041; ROS (reactive oxygen species; [7]): −3.055; GE-HTS (OXPHOS gene expression; [6]): −1.322; GE-HTS (OXPHOS gene expression; [7]): −1.733; nucOX (nuOXPHOS transcripts; [6]): −0.852; nucOX (nuOXPHOS transcripts; [7]): −1.087; mitoOX (mtOXPHOS transcripts; [6]): −2.024; mitoOX (mtOXPHOS transcripts; [7]): −2.705; cyt c (cytochrome c; [6]): −4.108; cyt c (cytochrome c; [7]): −3.241; Viability (C2C12 myotubes; [6]): −3.696; Viability (C2C12 myotubes; [7]): −3.176; MTT [2, 6]: −5.151; MTT [2, 7]: −4.446 |
| CC(C)=CCc1c(O)cc2occ(-c3ccc4c(c3)OCO4)c(=O)c2c1O [derrubone] |  |  |  |  |  |  |  |  | −1.272 | 1.419 | −0.409 | −0.626 | 0.066 | −0.126 | −0.568 | −0.499 |  |
| COc1cc(OC)c2c(OC)c(-c3ccc4c(c3)OCO4)c(=O)oc2c1 [derrusnin] |  |  |  |  |  |  |  |  |  |  |  |  |  |  |  |  | ΔΨm [1, 4]: 0.025; ROS (reactive oxygen species; [4]): 4.060; GE-HTS (OXPHOS gene expression; [4]): 0.039; nucOX (nuOXPHOS transcripts; [4]): −0.129; mitoOX (mtOXPHOS transcripts; [4]): 0.417; cyt c (cytochrome c; [4]): 0.511; Viability (C2C12 myotubes; [4]): 1.067; MTT [2, 4]: −1.630 |
| c1ccc2c(c1)CN1CCCC1=N2 [desoxypeganine] |  |  |  |  |  |  |  |  | 1.046 | 0.647 | 0.631 | 0.621 | 0.556 | 0.372 | −0.281 | 1.441 |  |
| CC(=O)OCC(=O)[C@@]1(O)[C@H](C)C[C@H]2[C@@H]3CCC4=CC(=O)C=C[C@]4(C)[C@@]3(F)[C@@H](O)C[C@@]21C [dexamethasone acetate] |  |  |  |  |  |  |  |  | −0.439 | 0.067 | 0.461 | 0.516 | 0.330 | 0.174 | −1.518 | 0.058 |  |
